Measured values taken from patent US20230295200A1 (REGENTS OF THE UNIVERSITY OF MICHIGAN, priority 2022, published 2023).
pKi: −log10 of the molar value.

Columns and labels:
STAT5A = target: T1, STAT5A (Homo sapiens, UniProt P42229); test: Fluorescence polarization (FP) binding assay, STAT5A; conditions: FP competition, 5 nM fluorescein-labeled tracer, 200 nM protein, PBS pH7.4
T1 sequence (P42229 1-794): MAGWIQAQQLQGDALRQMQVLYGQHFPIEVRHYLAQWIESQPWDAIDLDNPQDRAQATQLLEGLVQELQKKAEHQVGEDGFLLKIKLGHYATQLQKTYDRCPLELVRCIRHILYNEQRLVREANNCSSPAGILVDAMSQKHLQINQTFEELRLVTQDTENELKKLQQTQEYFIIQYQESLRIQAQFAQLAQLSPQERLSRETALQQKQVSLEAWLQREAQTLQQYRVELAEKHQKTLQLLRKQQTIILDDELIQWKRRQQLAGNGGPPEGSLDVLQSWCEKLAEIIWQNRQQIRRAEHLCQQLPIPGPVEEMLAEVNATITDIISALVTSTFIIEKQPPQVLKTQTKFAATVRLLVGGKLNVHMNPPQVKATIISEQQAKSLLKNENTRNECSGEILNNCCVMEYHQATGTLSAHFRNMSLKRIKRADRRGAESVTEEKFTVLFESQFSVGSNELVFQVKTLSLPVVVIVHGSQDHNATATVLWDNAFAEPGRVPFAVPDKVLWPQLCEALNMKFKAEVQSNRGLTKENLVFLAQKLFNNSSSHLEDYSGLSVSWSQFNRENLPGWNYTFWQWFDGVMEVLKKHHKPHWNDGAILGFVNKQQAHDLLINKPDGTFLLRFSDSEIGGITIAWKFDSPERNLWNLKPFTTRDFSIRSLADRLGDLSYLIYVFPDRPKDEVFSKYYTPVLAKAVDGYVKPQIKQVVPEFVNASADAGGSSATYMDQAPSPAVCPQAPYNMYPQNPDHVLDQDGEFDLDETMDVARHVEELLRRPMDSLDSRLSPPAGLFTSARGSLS
Summary of the method: (§1)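 Fluorescence polarization is read after STAT5 or STAT6 protein (200 nM) and a fluorescein-labeled tracer (5 nM) equilibrate for 1 h at room temperature in DTT-containing PBS pH 7.4 with BGG and Tween-20. Inhibition constants are obtained by nonlinear curve fitting.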

STAT6 protein = target: T2, STAT6 protein (Homo sapiens, UniProt P42226); test: Fluorescence polarization (FP) binding assay, STAT6; conditions: FP competition, 5 nM fluorescein-labeled tracer, 200 nM protein, PBS pH7.4; read-out: Binding STAT6
T2 sequence (P42226 1-847): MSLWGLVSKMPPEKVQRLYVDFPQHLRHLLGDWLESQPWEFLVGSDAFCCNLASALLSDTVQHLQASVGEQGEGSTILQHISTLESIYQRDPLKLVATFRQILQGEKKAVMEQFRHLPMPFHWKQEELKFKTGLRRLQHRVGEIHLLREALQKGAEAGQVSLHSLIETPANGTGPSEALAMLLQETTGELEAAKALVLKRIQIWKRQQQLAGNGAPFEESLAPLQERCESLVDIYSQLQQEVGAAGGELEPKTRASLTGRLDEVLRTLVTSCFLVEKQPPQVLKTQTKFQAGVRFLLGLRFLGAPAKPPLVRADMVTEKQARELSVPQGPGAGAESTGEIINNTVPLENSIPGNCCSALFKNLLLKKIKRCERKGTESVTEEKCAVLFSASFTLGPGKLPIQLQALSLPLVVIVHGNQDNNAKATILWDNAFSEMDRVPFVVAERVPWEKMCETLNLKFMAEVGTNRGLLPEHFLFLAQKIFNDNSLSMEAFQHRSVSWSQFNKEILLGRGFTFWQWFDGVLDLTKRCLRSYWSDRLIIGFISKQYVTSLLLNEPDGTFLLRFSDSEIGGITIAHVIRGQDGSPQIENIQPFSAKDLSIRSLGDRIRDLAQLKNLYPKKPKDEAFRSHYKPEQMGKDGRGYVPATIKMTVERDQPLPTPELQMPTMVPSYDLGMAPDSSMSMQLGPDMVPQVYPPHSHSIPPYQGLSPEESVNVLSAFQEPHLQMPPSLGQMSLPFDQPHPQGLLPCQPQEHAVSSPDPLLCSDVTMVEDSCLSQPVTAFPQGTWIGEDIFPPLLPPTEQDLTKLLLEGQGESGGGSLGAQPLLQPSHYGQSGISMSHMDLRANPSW
Summary of the method: as §1

SMILES	pKi (STAT5A)	pKi (STAT6 protein)
CC(C)(C)[C@H](NC(=O)c1cc2cc(C(F)(F)P(=O)(O)O)ccc2s1)C(=O)N1CCC[C@H]1C(=O)Nc1ncc(Cc2ccccc2)s1 [Compound 211, ((2-(((S)-1-((S)-2-((5-benzylthiazol-2-yl)carbamoyl)pyrrolidin-1-yl)-3,3-dimethyl-1-oxobutan-2-yl)carbamoyl)benzo[b]thiophen-5-yl)difluoromethyl)phosphonic acid]	5.00 to 6.00	6.00 to 7.00
CC(C)(C)[C@H](NC(=O)c1cc2cc(C(F)(F)P(=O)(O)O)ccc2s1)C(=O)N1CCC[C@H]1C(=O)Nc1nc(Cc2ccccc2)cs1 [Compound 212, ((2-(((S)-1-((S)-2-((4-benzylthiazol-2-yl)carbamoyl)pyrrolidin-1-yl)-3,3-dimethyl-1-oxobutan-2-yl)carbamoyl)benzo[b]thiophen-5-yl)difluoromethyl)phosphonic acid]	5.00 to 6.00	5.00 to 6.00
CC(C)(C)[C@H](NC(=O)c1cc2cc(C(F)(F)P(=O)(O)O)ccc2s1)C(=O)N1CCC[C@H]1C(=O)Nc1nc2ccccc2s1 [Compound 213, ((2-(((S)-1-((S)-2-(benzo[d]thiazol-2-ylcarbamoyl)pyrrolidin-1-yl)-3,3-dimethyl-1-oxobutan-2-yl)carbamoyl)benzo[b]thiophen-5-yl)difluoromethyl)phosphonic acid]	< 5.00	5.00 to 6.00
CC(C)(C)[C@H](NC(=O)c1cc2cc(C(F)(F)P(=O)(O)O)ccc2s1)C(=O)N1CCC[C@H]1C(=O)N[C@H]1CCc2ccccc2C1 [Compound 214, ((2-(((S)-3,3-dimethyl-1-oxo-1-((S)-2-(((S)-1,2,3,4-tetrahydronaphthalen-2-yl)carbamoyl)pyrrolidin-1-yl)butan-2-yl)carbamoyl)benzo[b]thiophen-5-yl)difluoromethyl)phosphonic acid]	< 5.00	5.00 to 6.00
CC(C)(C)[C@H](NC(=O)c1cc2cc(C(F)(F)P(=O)(O)O)ccc2s1)C(=O)N1CCC[C@H]1C(=O)N[C@@H]1CCc2ccccc2C1 [Compound 215, ((2-(((S)-3,3-dimethyl-1-oxo-1-((S)-2-(((R)-1,2,3,4-tetrahydronaphthalen-2-yl)carbamoyl)pyrrolidin-1-yl)butan-2-yl)carbamoyl)benzo[b]thiophen-5-yl)difluoromethyl)phosphonic acid]	< 5.00	5.00 to 6.00
CC(C)(C)[C@H](NC(=O)c1cc2cc(C(F)(F)P(=O)(O)O)ccc2s1)C(=O)N1Cc2ccccc2C[C@H]1C(=O)N1CCOC(c2ccccn2)C1 (stereo partly drawn) [Compound 216, ((2-(((2S)-3,3-dimethyl-1-oxo-1-((3S)-3-(2-(pyridin-2-yl)morpholine-4-carbonyl)-3,4-dihydroisoquinolin-2(1H)-yl)butan-2-yl)carbamoyl)benzo[b]thiophen-5-yl)difluoromethyl)phosphonic acid]	< 5.00	< 5.00
CC(C)(C)[C@H](NC(=O)c1cc2cc(C(F)(F)P(=O)(O)O)ccc2s1)C(=O)N1CCC[C@H]1C(=O)Nc1ccc(-c2ccccc2)s1 [Compound 305, ((2-(((S)-3,3-dimethyl-1-oxo-1-((S)-2-((5-phenylthiophen-2-yl)carbamoyl)pyrrolidin-1-yl)butan-2-yl)carbamoyl)benzo[b]thiophen-5-yl)difluoromethyl)phosphonic acid]	6.00 to 7.00	5.00 to 6.00
CC(C)(C)[C@H](NC(=O)c1cc2cc(C(F)(F)P(=O)(O)O)ccc2s1)C(=O)N1CCCCC[C@H]1C(=O)Nc1ccc(-c2ccccc2)s1 [Compound 306, ((2-(((S)-3,3-dimethyl-1-oxo-1-((S)-2-((5-phenylthiophen-2-yl)carbamoyl)azepan-1-yl)butan-2-yl)carbamoyl)benzo[b]thiophen-5-yl)difluoromethyl)phosphonic acid]	5.00 to 6.00	< 5.00
CCO[C@@H]1CCN(C(=O)[C@@H](NC(=O)c2cc3cc(C(F)(F)P(=O)(O)O)ccc3s2)C(C)(C)C)[C@@H]1C(=O)N1CCO[C@H](c2ccccc2)C1 [Compound 307, ((2-(((S)-1-((2S,3R)-3-ethoxy-2-((R)-2-phenylmorpholine-4-carbonyl)pyrrolidin-1-yl)-3,3-dimethyl-1-oxobutan-2-yl)carbamoyl)benzo[b]thiophen-5-yl)difluoromethyl)phosphonic acid]	5.00 to 6.00	6.00 to 7.00
CCO[C@H]1CCN(C(=O)[C@@H](NC(=O)c2cc3cc(C(F)(F)P(=O)(O)O)ccc3s2)C(C)(C)C)[C@@H]1C(=O)N1CCO[C@H](c2ccccc2)C1 [Compound 308, ((2-(((S)-1-((2S,3S)-3-ethoxy-2-((R)-2-phenylmorpholine-4-carbonyl)pyrrolidin-1-yl)-3,3-dimethyl-1-oxobutan-2-yl)carbamoyl)benzo[b]thiophen-5-yl)difluoromethyl)phosphonic acid]	5.00 to 6.00	5.00 to 6.00
CN(C)C(=O)CCN(C(=O)[C@@H]1CCCN1C(=O)[C@@H](NC(=O)c1cc2cc(C(F)(F)P(=O)(O)O)ccc2s1)C(C)(C)C)c1ccc(-c2nccs2)cc1 [Compound 309, ((2-(((S)-1-((S)-2-((3-(dimethylamino)-3-oxopropyl)(4-(thiazol-2-yl)phenyl)carbamoyl)pyrrolidin-1-yl)-3,3-dimethyl-1-oxobutan-2-yl)carbamoyl)benzo[b]thiophen-5-yl)difluoromethyl)phosphonic acid]	5.00 to 6.00	6.00 to 7.00
CN(C)C(=O)CCN(C(=O)[C@@H]1CCCN1C(=O)[C@@H](NC(=O)c1cc2cc(C(F)(F)P(=O)(O)O)ccc2s1)C(C)(C)C)c1ccc2ccccc2c1 [Compound 317, ((2-(((S)-1-((S)-2-((3-(dimethylamino)-3-oxopropyl)(naphthalen-2-yl)carbamoyl)pyrrolidin-1-yl)-3,3-dimethyl-1-oxobutan-2-yl)carbamoyl)benzo[b]thiophen-5-yl)difluoromethyl)phosphonic acid]	5.00 to 6.00	6.00 to 7.00
CN(C)C(=O)CCN(C(=O)[C@@H]1CCCN1C(=O)[C@@H](NC(=O)c1cc2cc(C(F)(F)P(=O)(O)O)ccc2s1)C(C)(C)C)c1ccc(-c2ccccc2)cc1 [Compound 318]	5.00 to 6.00	5.00 to 6.00
CN(C)C(=O)CCN(C(=O)[C@@H]1CCCN1C(=O)[C@@H](NC(=O)c1cc2cc(C(F)(F)P(=O)(O)O)ccc2s1)C(C)(C)C)c1cccc(-c2nccs2)c1 [Compound 320, ((2-(((S)-1-((S)-2-((3-(dimethylamino)-3-oxopropyl)(3-(thiazol-2-yl)phenyl)carbamoyl)pyrrolidin-1-yl)-3,3-dimethyl-1-oxobutan-2-yl)carbamoyl)benzo[b]thiophen-5-yl)difluoromethyl)phosphonic acid]	< 5.00	5.00 to 6.00
